The text below walks through data of ChEMBL document CHEMBL5120860, “Ansellone J, a Potent in Vitro and ex Vivo HIV-1 Latency Reversal Agent Isolated from a Phorbas sp. Marine Sponge” (J Nat Prod, 2022).

Series [1] in a line: Inhibition of HIV-1 latency reversal in GFP-fused human J-lat 9.2 cells at 3 uM incubated for 24 hrs in presence of pan-PKC inhibitor Go 6983 by flow cytometry analysis relative to control. To be noted: Human immunodeficiency virus 1, J-Lat 9.2. The format is functional. (In flow cytometry, cells or beads pass a laser one at a time.)
Series [2] has as its system Human immunodeficiency virus 1. Put plainly: Reversal of HIV-1 latency infected in GFP-fused human J-Lat 9.2 cells assessed as increase in GFP expression at 10 uM incubated for 24 hrs by flow cytometry analysis relative to control. The format is functional.
The nature of series [3]: Inhibition of HIV-1 latency reversal in GFP-fused human J-lat 9.2 cells at 10 uM incubated for 24 hrs in presence of pan-PKC inhibitor Go 6983 by flow cytometry analysis relative to control. The series is classed as functional. The note with it: Human immunodeficiency virus 1, J-Lat 9.2.
The test system of series [4] is Human immunodeficiency virus 1. Briefly: Reversal of HIV-1 latency infected in GFP-fused human J-Lat 9.2 cells assessed as increase in GFP expression at 30 uM incubated for 24 hrs by flow cytometry analysis relative to control. The format is functional.
For series [5], the system named is Human immunodeficiency virus 1. Put plainly: Reversal of HIV-1 latency infected in GFP-fused human J-Lat 9.2 cells assessed as increase in GFP expression at 3 uM incubated for 24 hrs by flow cytometry analysis relative to control. The series is classed as functional.
Series [6] can be described thus: Inhibition of HIV-1 latency reversal in GFP-fused human J-lat 9.2 cells at 1 uM incubated for 24 hrs in presence of pan-PKC inhibitor Go 6983 by flow cytometry analysis relative to control. The series is classed as functional. To be noted: Human immunodeficiency virus 1, J-Lat 9.2.
Series [7] concerns Human immunodeficiency virus 1. Put plainly: Reversal of HIV-1 latency in human CD4+ T cells derived from cARC-suppressed donors with HIV assessed as increase in viral RNA copies measured per ml of supernatant at 1 uM incubated for 24 hrs by qRT-PCR analysis (reference value: 191 +/- 321). The format is functional, CD4+ve Th. In general terms: Quantitative PCR measures a nucleic acid by following its amplification.

Series [8] in a line: Cytotoxicity against human CD4+ T cells derived from cARC-suppressed donors with HIV assessed as cell viability at 1 uM incubated for 24 hrs by trypan blue staining based analysis relative to control. The series is classed as toxicity, CD4+ve Th. To be noted: primary CD4+ T cells from cART-suppressed donors with HIV, read-out: Activity.
For series [9], the system named is Human immunodeficiency virus 1. Put plainly: Reversal of HIV-1 latency in human CD4+ T cells derived from cARC-suppressed donors with HIV assessed as fold increase in viral RNA copies measured per ml of supernatant at 1 uM incubated for 24 hrs by qRT-PCR analysis. The format is functional, CD4+ve Th.
Series [10] in a line: Cytotoxicity against human CD4+ T cells derived from cARC-suppressed donors with HIV assessed as cell viability at 10 uM incubated for 24 hrs by trypan blue staining based analysis relative to control. The format is toxicity, CD4+ve Th. To be noted: primary CD4+ T cells from cART-suppressed donors with HIV, read-out: Activity.
Series [11] relates to Human immunodeficiency virus 1. Briefly: Reversal of HIV-1 latency in human CD4+ T cells derived from cARC-suppressed donors with HIV assessed as fold increase in viral RNA copies measured per ml of supernatant at 10 uM incubated for 24 hrs by qRT-PCR analysis. The format is functional, CD4+ve Th.
Series [12] relates to Human immunodeficiency virus 1. Briefly: Reversal of HIV-1 latency in human CD4+ T cells derived from cARC-suppressed donors with HIV assessed as increase in viral RNA copies measured per ml of supernatant at 10 uM incubated for 24 hrs by qRT-PCR analysis (reference value: 191 +/- 321). The series is classed as functional, CD4+ve Th.

In the case of `CC(=O)O[C@H]1C[C@]2(C)c3cc(C)c(O)cc3C(C)=CC(=O)[C@@H]2[C@@]2(C)CCCC(C)(C)[C@H]12`, the inhibition (in general, how much of the control response was suppressed) at 3 µM in [1] is more than 95%. For the same compound, the Activity in series [2] amounted to 36.8%.
On to `CC(=O)O[C@]1(C)C[C@@H](/C=C(\C)CCC=C(C)C)O[C@@]2(C=C(CO)[C@H]3CC(=O)C(C)=C[C@H]3O2)C1`, for which the inhibition at 10 µM in [3] was more than 90%. For the same compound, the Activity in [4] was determined as 26.2%.
For the compound `CC1=C[C@H]2O[C@@H]([C@@H]3[C@@]4(C)CCCC(C)(C)[C@@H]4C=C[C@@]3(C)O)C=C(CO)[C@H]2CC1=O`, the Activity in [5] is reported as 27.3%; in series [7] it was 519. Moreover, the inhibition at 1 µM in series [6] is more than 95%. Besides, the viability at 24 h, 1 µM in series [8] is 82.4%. In addition, the “fold change (FC)” value in [9] was determined as 2.7.
`CC(=O)O[C@@]12C[C@@H](C)[C@@]3(O)[C@@H](C=C(CO)C[C@]4(O)C(=O)C(C)=C[C@@H]34)[C@@H]1C2(C)C` [PROSTRATIN]: in series [10], the viability at 24 h, 10 µM worked out at 84%. The “fold change (FC)” value in series [11] was 2.8. Further, in series [3], the inhibition at 10 µM was more than 90%. Besides, the Activity in [12] is recorded as 685; in [2] it was 11.1%; in series [4] it was 11.7%.
